Drawing on patent publication US10934274B2, “Quinoline derivatives as TAM RTK inhibitors” (Qurient Co., Ltd., priority 2015, dated 2021), this text covers Kd for 22 compounds.

The target of experiment [1] is T1, Axl (Homo sapiens, UniProt P30530).
T1 construct: purchased Life Technologies
T1 sequence (P30530 26-894): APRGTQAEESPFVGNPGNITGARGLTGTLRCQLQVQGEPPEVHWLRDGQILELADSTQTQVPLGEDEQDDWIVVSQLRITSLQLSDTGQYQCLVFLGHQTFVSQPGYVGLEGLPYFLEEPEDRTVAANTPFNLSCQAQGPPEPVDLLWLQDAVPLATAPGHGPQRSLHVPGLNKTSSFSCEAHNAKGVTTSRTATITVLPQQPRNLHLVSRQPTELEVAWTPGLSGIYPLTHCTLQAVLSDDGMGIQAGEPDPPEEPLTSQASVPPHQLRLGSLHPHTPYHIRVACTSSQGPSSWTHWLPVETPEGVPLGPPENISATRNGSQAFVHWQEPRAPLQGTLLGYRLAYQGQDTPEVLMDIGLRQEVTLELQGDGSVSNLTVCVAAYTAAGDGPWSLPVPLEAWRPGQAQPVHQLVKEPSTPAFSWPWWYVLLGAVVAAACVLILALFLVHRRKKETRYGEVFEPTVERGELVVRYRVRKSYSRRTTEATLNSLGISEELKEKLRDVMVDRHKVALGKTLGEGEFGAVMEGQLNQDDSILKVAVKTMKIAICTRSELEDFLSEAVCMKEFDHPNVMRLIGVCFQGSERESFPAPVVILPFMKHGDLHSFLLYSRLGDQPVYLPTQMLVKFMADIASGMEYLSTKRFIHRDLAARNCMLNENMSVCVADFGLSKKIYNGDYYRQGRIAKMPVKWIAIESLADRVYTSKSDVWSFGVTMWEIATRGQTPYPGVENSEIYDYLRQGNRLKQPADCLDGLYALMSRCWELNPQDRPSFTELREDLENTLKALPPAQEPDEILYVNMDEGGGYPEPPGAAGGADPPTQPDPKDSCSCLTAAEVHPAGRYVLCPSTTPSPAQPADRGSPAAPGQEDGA
Nature of the experiment: LanthaScreen Eu kinase binding assay, Axl. As to conditions: Tracer 236. In general terms: In TR-FRET formats the signal depends on donor and acceptor labels being close together.

Experiment [2] deals with T2, TYRO3 (Homo sapiens, UniProt Q06418).
T2 construct: purchased Life Technologies
T2 sequence (Q06418 41-890): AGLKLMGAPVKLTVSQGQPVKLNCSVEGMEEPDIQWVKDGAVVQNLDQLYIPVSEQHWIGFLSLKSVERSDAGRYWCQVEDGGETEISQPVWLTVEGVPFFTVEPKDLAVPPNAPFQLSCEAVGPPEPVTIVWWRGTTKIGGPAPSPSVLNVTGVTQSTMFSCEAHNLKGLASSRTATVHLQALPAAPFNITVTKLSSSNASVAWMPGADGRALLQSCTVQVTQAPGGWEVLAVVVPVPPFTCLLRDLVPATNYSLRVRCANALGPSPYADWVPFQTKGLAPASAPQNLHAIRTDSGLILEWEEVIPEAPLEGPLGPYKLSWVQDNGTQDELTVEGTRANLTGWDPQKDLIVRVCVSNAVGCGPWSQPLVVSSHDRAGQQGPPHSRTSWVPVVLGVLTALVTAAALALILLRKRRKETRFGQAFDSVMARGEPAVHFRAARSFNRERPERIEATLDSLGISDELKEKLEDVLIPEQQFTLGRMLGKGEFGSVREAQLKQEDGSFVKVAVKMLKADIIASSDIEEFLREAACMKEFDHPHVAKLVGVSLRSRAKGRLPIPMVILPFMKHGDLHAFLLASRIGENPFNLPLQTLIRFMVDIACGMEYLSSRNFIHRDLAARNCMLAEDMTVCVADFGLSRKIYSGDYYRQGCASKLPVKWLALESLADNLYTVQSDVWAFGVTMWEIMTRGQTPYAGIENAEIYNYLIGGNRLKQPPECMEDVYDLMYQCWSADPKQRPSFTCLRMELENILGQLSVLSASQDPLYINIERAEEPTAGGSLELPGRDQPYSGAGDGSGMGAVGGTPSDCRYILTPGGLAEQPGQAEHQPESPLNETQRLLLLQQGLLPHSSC
The experiment in a line: LanthaScreen Eu kinase binding assay, TYRO3. Particulars: Tracer 236.

In experiment [3] the target is T3, Met (Homo sapiens, UniProt P08581).
T3 construct: purchased Life Technologies
The experiment in a line: LanthaScreen Eu kinase binding assay, Met. Particulars: Tracer 236, read-out: cMet kinase binding activity (Kd).

Experiment [4] concerns the target T4, Mer (Homo sapiens, UniProt Q12866).
T4 construct: purchased Life Technologies
T4 sequence (Q12866 21-999): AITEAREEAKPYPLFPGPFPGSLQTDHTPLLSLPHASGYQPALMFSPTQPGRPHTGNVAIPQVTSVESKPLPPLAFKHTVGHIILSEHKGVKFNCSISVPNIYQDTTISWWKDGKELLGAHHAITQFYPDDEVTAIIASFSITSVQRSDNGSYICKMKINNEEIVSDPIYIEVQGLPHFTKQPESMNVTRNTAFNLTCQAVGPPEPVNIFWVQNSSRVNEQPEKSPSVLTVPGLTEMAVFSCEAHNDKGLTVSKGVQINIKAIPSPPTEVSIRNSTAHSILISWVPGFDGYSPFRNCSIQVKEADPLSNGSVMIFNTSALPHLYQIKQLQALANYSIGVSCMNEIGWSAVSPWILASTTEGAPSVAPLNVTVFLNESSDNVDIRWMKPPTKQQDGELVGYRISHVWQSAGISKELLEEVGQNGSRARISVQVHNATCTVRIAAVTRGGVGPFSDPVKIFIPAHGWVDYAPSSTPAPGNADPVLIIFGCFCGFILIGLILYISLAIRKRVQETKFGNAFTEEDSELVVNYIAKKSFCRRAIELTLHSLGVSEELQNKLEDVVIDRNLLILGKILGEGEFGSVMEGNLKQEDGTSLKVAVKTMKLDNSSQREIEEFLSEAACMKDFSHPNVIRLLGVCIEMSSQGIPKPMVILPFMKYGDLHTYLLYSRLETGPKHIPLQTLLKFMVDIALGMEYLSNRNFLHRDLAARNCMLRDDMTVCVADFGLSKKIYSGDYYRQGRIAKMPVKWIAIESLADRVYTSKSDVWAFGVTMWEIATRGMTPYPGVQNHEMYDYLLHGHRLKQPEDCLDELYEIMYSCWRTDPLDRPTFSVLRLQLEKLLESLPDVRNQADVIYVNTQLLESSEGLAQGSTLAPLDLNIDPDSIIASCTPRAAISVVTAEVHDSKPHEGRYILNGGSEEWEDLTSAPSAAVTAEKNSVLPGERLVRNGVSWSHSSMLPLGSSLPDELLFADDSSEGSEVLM
Nature of the experiment: LanthaScreen Eu kinase binding assay, Mer. Particulars: Tracer 236.

Bounds are passed on as bounds.

T3 sequence (P08581 25-1390): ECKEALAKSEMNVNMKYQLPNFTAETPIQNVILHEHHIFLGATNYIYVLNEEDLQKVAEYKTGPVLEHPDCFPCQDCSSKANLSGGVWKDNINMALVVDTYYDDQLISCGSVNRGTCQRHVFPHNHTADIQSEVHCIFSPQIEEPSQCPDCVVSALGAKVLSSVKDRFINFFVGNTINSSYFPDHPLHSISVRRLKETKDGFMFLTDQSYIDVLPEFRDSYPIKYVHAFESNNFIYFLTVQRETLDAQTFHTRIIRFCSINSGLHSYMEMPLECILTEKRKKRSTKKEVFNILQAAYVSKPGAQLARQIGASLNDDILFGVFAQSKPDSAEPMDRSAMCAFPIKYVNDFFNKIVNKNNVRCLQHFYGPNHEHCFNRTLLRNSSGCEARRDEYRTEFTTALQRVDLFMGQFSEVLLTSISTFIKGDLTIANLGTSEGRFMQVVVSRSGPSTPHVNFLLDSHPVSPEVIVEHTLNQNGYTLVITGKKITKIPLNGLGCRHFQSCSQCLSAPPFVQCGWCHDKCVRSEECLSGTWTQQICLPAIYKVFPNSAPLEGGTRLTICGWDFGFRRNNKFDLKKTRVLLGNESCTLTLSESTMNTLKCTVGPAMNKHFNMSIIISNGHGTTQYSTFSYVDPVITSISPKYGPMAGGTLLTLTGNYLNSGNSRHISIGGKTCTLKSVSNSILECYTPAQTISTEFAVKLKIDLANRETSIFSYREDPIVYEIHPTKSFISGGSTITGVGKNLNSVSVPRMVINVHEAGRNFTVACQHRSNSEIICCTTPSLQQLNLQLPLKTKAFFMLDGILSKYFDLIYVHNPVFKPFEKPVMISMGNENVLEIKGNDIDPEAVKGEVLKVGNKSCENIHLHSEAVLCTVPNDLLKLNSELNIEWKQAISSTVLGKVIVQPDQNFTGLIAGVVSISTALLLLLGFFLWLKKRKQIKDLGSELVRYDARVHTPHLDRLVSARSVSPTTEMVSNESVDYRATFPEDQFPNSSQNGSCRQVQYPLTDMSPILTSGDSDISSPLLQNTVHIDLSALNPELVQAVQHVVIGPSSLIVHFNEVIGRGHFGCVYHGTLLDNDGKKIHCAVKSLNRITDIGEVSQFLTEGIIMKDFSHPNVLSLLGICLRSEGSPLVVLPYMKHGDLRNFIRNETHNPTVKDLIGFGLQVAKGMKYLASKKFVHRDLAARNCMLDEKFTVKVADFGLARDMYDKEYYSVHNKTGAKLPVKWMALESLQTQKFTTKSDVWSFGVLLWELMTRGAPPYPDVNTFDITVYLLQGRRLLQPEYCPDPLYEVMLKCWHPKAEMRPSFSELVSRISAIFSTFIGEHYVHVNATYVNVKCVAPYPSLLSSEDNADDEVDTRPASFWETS

As usually defined, the Kd is a measure of binding affinity in units of concentration. For the compound `CCOc1cnn(-c2cnc(C(F)(F)F)nc2)c1C(=O)Nc1ccc(Oc2ccnc3cc(OC)c(OC)cc23)cn1` [Compound 145], the equilibrium dissociation constant (Kd) in experiment [1], in experiment [2], in experiment [3] and in experiment [4] was no less than 1 µM throughout.
With `CCOc1cn(-c2cnc(N)nc2)nc1C(=O)Nc1ccc(Oc2ccnc3cc(OC)c(OC)cc23)c(Cl)c1` [Compound 146], the Kd in experiment [1], in experiment [2], in experiment [3] and in experiment [4] was less than 0.1 µM each time.
With `CCOc1cn(-c2cnccc2C#N)nc1C(=O)Nc1ccc(Oc2ccnc3cc(OC)c(OC)cc23)cn1` [Compound 147], the Kd in experiment [1], in experiment [2], in experiment [3] and in experiment [4] was less than 0.1 µM each time.
For the compound `CCOc1cn(-c2cnc(N)nc2C)nc1C(=O)Nc1ccc(Oc2ccnc3cc(OC)c(OC)cc23)cn1` [Compound 150], the Kd in experiment [1], in experiment [2], in experiment [3] and in experiment [4] was less than 0.1 µM throughout.
For the compound `CCOc1cn(-c2cnccn2)nc1C(=O)Nc1ccc(Oc2ccnc3cc(OC)c(OC)cc23)cc1F` [Compound 152], the Kd is no less than 1 µM in experiment [1], no less than 1 µM in experiment [2], no less than 1 µM in experiment [3] and less than 0.1 µM in experiment [4].
For the compound `CCOc1cn(-c2cnc(N)nc2)nc1C(=O)Nc1ccc(Oc2ccnc3cc(OC)c(OC)cc23)cc1F` [Compound 153], the dissociation constant Kd in experiment [1], in experiment [2], in experiment [3] and in experiment [4] was less than 0.1 µM in each case.
Consider `CCOc1cn(-c2cccnc2)nc1C(=O)Nc1ncc(Oc2ccnc3cc(OC)c(OC)cc23)cc1F` [Compound 154], for which the Kd was less than 0.1 µM in experiment [1], no less than 1 µM in experiment [2], no less than 1 µM in experiment [3] and less than 0.1 µM in experiment [4].
`CCOc1cn(-c2ncc(F)cc2C#N)nc1C(=O)Nc1ccc(Oc2ccnc3cc(OC)c(OC)cc23)cn1` [Compound 155]: the Kd in experiment [1] is less than 0.1 µM; in experiment [2] it was 0.1 to 1 µM; in experiment [3], less than 0.1 µM; in experiment [4] it was less than 0.1 µM.
Consider `CCOc1c(C(=O)Nc2ccc(Oc3ccnc4cc(OC)c(OC)cc34)cn2)nn(-c2cccnc2)c1C` [Compound 156], for which the Kd in experiment [1], in experiment [2], in experiment [3] and in experiment [4] was less than 0.1 µM in each case.
`CCOc1cn(-c2cncc(C)n2)nc1C(=O)Nc1ccc(Oc2ccnc3cc(OC)c(OC)cc23)cn1` [Compound 157]: the Kd was less than 0.1 µM in experiment [1], no less than 1 µM in experiment [2], less than 0.1 µM in experiment [3] and less than 0.1 µM in experiment [4].
As for `CCOc1cn(-c2cncc(C#N)n2)nc1C(=O)Nc1ccc(Oc2ccnc3cc(OC)c(OC)cc23)cn1` [Compound 158], the Kd is 0.1 to 1 µM in experiment [1], no less than 1 µM in experiment [2], no less than 1 µM in experiment [3] and no less than 1 µM in experiment [4].
For the compound `CCOc1cn(-c2cnc(C(F)(F)F)cn2)nc1C(=O)Nc1ccc(Oc2ccnc3cc(OC)c(OC)cc23)cn1` [Compound 159], the Kd in experiment [1], in experiment [2], in experiment [3] and in experiment [4] was no less than 1 µM throughout.
In the case of `CCOc1cn(-c2cnccn2)nc1C(=O)Nc1cc(C)c(Oc2ccnc3cc(OC)c(OC)cc23)cn1` [Compound 163], the Kd in experiment [1] is less than 0.1 µM; in experiment [2], no less than 1 µM; in experiment [3], less than 0.1 µM; in experiment [4], less than 0.1 µM.
With `CCOc1cn(-c2cncc(C(F)(F)F)n2)nc1C(=O)Nc1ccc(Oc2ccnc3cc(OC)c(OC)cc23)cn1` [Compound 164], the Kd in experiment [1] is 0.1 to 1 µM; in experiment [2], no less than 1 µM; in experiment [3], 0.1 to 1 µM; in experiment [4], less than 0.1 µM.
In the case of `CCOc1cn(-c2cncnc2C(C)C)nc1C(=O)Nc1ccc(Oc2ccnc3cc(OC)c(OC)cc23)cn1` [Compound 166], the Kd in experiment [1], in experiment [2], in experiment [3] and in experiment [4] was less than 0.1 µM throughout.
As for `CCOc1cn(-c2cnc(F)cn2)nc1C(=O)Nc1ccc(Oc2ccnc3cc(OC)c(OC)cc23)cn1` [Compound 171], the Kd in experiment [1] was less than 0.1 µM; in experiment [2], 0.1 to 1 µM; in experiment [3], less than 0.1 µM; in experiment [4], less than 0.1 µM.
With `CCOc1cn(-c2cnccc2C(=O)OC)nc1C(=O)Nc1ccc(Oc2ccnc3cc(OC)c(OC)cc23)cn1` [Compound 172], the Kd in experiment [1], in experiment [2], in experiment [3] and in experiment [4] was less than 0.1 µM each time.
On to `CCOc1cn(-c2cnccc2OC)nc1C(=O)Nc1ccc(Oc2ccnc3cc(OC)c(OC)cc23)cn1` [Compound 173], for which the Kd in experiment [1], in experiment [2], in experiment [3] and in experiment [4] was less than 0.1 µM each time.
Consider `CCOc1cn(-c2cncnc2OC)nc1C(=O)Nc1ccc(Oc2ccnc3cc(OC)c(OC)cc23)cn1` [Compound 175], for which the Kd in experiment [1], in experiment [2], in experiment [3] and in experiment [4] was less than 0.1 µM in each case.
Consider `CCOc1cn(-c2cnccc2CC(=O)OC)nc1C(=O)Nc1ccc(Oc2ccnc3cc(OC)c(OC)cc23)cn1` [Compound 176], for which the equilibrium dissociation constant (Kd) was less than 0.1 µM in experiment [1], 0.1 to 1 µM in experiment [2], less than 0.1 µM in experiment [3] and less than 0.1 µM in experiment [4].
As for `CCOc1cn(-c2nccnc2F)nc1C(=O)Nc1ccc(Oc2ccnc3cc(OC)c(OC)cc23)cn1` [Compound 178], the Kd in experiment [1], in experiment [2], in experiment [3] and in experiment [4] was less than 0.1 µM throughout.
As to `CCOc1cn(-c2cncnc2N2CCCC2)nc1C(=O)Nc1ccc(Oc2ccnc3cc(OC)c(OC)cc23)cn1` [Compound 180], the Kd is 0.1 to 1 µM in experiment [1], no less than 1 µM in experiment [2], no less than 1 µM in experiment [3] and 0.1 to 1 µM in experiment [4].
